# In ChEMBL document CHEMBL1201862, “PubChem BioAssay data set” (2004):
# Active and inactive are the calls of the source. Rule as the data show it, for most assays here: actives have a measured EC50 and inactives only a lower limit.
# What was measured:
# [1] = Luminescence Cell-Based Dose Confirmation HTS to Identify Activators of 5'UTR Stem-Loop Driven Alpha-Synuclein mRNA Translation in H4 Neuroglioblastoma Cells. [Related pubchem assays: 1829 (Project Summary), 1814 (Primary HTS)]; assay type: functional
# [2] = Luminescence Cell-Based Dose Response HTS to Identify Activators of Luciferase Translation or Activity in H4 […] Cells. [Related pubchem assays: 1829 (Project Summary), 1814 (Primary HTS)]; assay type: functional
# H4 = assay: Luminescence Cell-Based Dose Response HTS to Identify Activators of 5'UTR Stem-Loop Driven Prion Protein mRNA Translation in H4 Neuroglioblastoma Cells. [Related pubchem assays: 1829 (Project Summary), 1814 (Primary HTS)]; assay type: functional; conditions: Homo sapiens
# [3] = molecular target: T1, Rac GTPase-activating protein 1 (Homo sapiens, UniProt Q9H0H5); assay: MgcRacGAP GTPase-activating activity inhibitors, confirmation, biochemical, ADP Hunter fluorescence, primary and confirmatory (AID 624330); assay type: functional
# T1 sequence (Q9H0H5 whole entry): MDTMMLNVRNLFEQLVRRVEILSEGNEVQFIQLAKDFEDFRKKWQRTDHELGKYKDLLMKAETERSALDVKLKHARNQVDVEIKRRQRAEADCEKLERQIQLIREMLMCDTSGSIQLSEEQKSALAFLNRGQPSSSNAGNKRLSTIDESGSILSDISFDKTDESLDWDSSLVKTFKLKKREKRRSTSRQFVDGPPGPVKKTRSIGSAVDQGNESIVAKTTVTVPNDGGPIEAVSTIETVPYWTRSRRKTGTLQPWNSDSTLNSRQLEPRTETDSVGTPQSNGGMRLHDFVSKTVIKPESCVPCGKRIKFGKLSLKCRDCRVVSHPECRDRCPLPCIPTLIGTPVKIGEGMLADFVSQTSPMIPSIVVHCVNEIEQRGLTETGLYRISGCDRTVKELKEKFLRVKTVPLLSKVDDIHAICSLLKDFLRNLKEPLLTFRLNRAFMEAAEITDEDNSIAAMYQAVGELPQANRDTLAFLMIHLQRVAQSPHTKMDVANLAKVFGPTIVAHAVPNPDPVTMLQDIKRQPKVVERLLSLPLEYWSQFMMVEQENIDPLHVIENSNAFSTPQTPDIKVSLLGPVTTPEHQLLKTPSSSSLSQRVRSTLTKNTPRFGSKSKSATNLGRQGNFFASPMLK
# [4] = inhibitors of firefly luciferase expression or activity, dose response, H4 neuroglioma cells, luminescence (AID 1990); assay type: functional, cell-based
# [5] = Luminescence Cell-Based Dose Response HTS to Identify Inhibitors of 5'UTR Stem-Loop Driven Prion Protein mRNA Translation in H4 Neuroglioblastoma Cells. [Related pubchem assays: 1827 (Project Summary), 1813 (Primary HTS)]; assay type: functional
# [6] = inhibitors of SNCA 5'UTR-driven reporter translation, confirmation, H4 neuroglioma cells, luminescence (AID 1988); assay type: functional, cell-based
# [7] = molecular target: T2, Corticotropin-releasing factor receptor 2/Corticotropin-releasing factor-binding protein (Homo sapiens, UniProt P24387+Q13324); assay: Dose Response confirmation of uHTS hits for small molecule antagonists of the CRF-binding protein and CRF-R2 receptor complex.; assay type: functional; conditions: read-out: IC50_Mean
# T2 sequence (Q13324 whole entry): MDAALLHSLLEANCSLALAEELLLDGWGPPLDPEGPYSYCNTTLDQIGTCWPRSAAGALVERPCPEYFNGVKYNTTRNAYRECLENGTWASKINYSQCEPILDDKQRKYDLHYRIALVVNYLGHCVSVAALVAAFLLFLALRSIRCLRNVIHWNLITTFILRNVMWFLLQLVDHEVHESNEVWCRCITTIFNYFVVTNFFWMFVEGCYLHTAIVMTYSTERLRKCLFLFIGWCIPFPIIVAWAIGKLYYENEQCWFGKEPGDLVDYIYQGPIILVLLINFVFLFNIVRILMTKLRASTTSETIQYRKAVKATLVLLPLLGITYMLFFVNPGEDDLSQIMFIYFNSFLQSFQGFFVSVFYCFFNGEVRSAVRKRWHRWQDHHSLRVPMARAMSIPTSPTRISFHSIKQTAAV
# T2 sequence (P24387 whole entry): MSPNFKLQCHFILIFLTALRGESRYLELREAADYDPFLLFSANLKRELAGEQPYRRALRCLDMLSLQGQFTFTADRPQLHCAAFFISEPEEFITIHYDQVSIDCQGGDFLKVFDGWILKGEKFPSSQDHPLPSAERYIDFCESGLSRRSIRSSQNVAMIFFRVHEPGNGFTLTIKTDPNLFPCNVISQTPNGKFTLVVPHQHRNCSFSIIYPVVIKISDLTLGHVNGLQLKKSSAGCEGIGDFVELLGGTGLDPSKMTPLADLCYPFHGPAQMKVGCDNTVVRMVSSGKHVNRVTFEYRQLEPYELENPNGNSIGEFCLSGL
# [8] = molecular target: T2, Corticotropin-releasing factor receptor 2/Corticotropin-releasing factor-binding protein; assay: activators of CRF receptor 2 with binding protein – uHTS hits, confirmation (AID 602473); assay type: functional; conditions: read-out: EC50_Mean
# [9] = inhibitors of intracellular T. cruzi replication, confirmation, NIH3T3 host cells, beta-gal luminescence (AID 2044); assay type: functional, cell-based;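 also: intracellular parasites grown in NIH/3T3 mouse fibroblasts as host cells; luminescent beta-galactosidase reporter signal from transgenic T. cruzi replicating inside host cells; inhibitors lower the luminescence signal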
# [10] = cytotoxicity toward NIH3T3 fibroblasts, dose response, counter-screen, cell-based, ATP luminescence, mouse fibroblasts (AID 2010); assay type: functional;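 also: cells exposed to compound for about 90 hours before reading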
# H9c2 = assay: cells; assay type: functional, cell-based; conditions: Rattus norvegicus, H9c2, Myocardium;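 also: confirmatory concentration-response retest of ultra-high-throughput screening hits for modulation of myocardial damage; cell death induced by hydrogen peroxide oxidative stress; compound pretreatment for 60 min then peroxide exposure for 2 h; potency is for protecting the cells against peroxide damage rather than for killing them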
# [11] = molecular target: T3, Replicative DNA helicase DnaB (Mycobacterium tuberculosis, UniProt P9WMR3); assay: DnaB intein splicing inhibitors, dose response, biochemical, cell-free fluorescence (AID 449749); assay type: functional
# T3 sequence (P9WMR3 whole entry): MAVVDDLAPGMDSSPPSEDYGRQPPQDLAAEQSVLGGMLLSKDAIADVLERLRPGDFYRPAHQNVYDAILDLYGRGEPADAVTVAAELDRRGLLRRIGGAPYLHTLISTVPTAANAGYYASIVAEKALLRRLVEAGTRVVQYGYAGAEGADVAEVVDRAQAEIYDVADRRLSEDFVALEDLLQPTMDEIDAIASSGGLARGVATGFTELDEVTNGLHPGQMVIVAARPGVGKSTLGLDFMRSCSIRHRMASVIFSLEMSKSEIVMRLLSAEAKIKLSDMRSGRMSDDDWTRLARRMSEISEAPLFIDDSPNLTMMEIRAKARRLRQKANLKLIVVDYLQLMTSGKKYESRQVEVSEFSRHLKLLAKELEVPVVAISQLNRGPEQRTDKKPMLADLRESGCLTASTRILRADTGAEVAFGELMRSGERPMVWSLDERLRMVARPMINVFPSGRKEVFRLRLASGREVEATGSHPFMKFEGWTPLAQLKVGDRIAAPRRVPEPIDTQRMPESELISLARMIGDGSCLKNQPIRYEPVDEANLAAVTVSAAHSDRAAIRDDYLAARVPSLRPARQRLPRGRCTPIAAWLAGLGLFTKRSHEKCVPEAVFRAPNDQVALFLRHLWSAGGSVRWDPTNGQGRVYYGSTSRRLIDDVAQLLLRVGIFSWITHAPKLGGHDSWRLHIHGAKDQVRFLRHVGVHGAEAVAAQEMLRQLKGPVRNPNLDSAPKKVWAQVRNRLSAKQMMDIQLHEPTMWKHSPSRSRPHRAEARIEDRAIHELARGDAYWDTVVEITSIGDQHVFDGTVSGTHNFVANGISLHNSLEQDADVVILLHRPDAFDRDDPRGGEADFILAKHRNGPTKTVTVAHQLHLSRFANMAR
# Protein RecA = molecular target: T4, Protein RecA (Mycobacterium tuberculosis, UniProt P9WHJ3); assay: Fluorescence Cell-Free Homogeneous Dose Retest to Identify Inhibitors of RecA-Intein Splicing Activity. [Related pubchem assays (depositor defined):AID2097, AID2223, AID489010, AID492950]; assay type: functional
# T4 sequence (P9WHJ3 whole entry): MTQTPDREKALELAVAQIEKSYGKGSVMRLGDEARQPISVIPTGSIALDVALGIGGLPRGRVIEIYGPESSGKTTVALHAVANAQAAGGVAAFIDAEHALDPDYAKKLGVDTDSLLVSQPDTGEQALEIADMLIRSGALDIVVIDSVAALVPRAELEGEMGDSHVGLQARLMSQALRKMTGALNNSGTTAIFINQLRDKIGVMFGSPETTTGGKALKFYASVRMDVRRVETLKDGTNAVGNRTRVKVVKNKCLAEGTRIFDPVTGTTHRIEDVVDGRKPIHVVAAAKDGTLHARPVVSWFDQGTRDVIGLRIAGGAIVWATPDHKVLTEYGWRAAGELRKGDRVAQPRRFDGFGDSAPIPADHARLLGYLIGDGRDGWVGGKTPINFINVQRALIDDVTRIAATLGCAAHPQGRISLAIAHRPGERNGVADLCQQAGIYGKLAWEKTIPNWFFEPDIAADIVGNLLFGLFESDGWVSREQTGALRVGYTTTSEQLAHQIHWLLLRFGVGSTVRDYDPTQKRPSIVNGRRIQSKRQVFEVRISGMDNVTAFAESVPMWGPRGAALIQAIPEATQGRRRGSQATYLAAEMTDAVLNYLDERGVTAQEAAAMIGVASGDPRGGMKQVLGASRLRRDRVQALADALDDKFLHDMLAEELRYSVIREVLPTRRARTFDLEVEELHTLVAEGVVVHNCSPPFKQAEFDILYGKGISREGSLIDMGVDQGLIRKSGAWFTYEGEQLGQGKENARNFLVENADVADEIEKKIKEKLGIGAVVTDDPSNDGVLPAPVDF
Compound,EC50 [1],EC50 [2],EC50 (H4),other results
O=C(c1cn(-c2ccc(Cl)c(Cl)c2)nn1)C1CC1,7.57 µM (active),10.6 µM (active),> 60 µM (not active),
CC(=O)c1c(C)c(C)c2n1CCn1c(C)ccc1-2,,,,IC50 [3]: 29 µM (active)
CCn1ncc(C(=O)Nc2cccc(Cl)c2)c1C,0.244 µM (active),5.61 µM (active),109 µM (active),
Cc1ccc(NC(=O)CN(C)CC(=O)Nc2ccc(F)c(F)c2F)c(Cl)c1,,,,EC50 [4]: > 120 µM (not active); EC50 [5]: > 120 µM (not active); EC50 [6]: > 120 µM (not active)
COC(=O)c1c(NC(=O)CCNCc2ccco2)sc2c1CCC2,,,,IC50 [3]: 138 µM (active)
CCOc1ccc2c(c1)=C(NN1C(=O)c3ccccc3C1=O)C(=O)N=2,,,,IC50 [7]: > 47.1 µM (inactive); EC50 [8]: > 53 µM (inactive)
CCOC(=O)c1cnc2c(OC)cccc2c1N1CCN(c2ccccc2OC)CC1,,,,EC50 [4]: 11.4 µM (active); EC50 [5]: > 120 µM (not active); EC50 [6]: 8.6 µM (active)
Cc1nc2ccc(NC(=O)CCC3CCCC3)cc2s1,10.7 µM (active),28.8 µM (active),15.2 µM (active),
CCN1C(=O)C(=C2C=C(C)OC(C)=C2)C(=O)N(CC)C1=S,> 120 µM (not active),> 120 µM (not active),> 120 µM (not active),
C=CCNC(=O)CN1CCN(C(c2ccccc2)c2ccccc2)CC1,,,,IC50 [3]: 168 µM (active)
Cn1c(C(=O)NC2CCCCC2)cc2c(=O)n3ccccc3nc21,> 120 µM (not active),8.85 µM (active),29.3 µM (active),
CCCCCSc1nc(N2CCOCC2)c2c(c1C#N)CC(C)(C)OC2,,,,EC50 [4]: > 120 µM (not active); EC50 [5]: 19.8 µM (active); EC50 [6]: > 120 µM (not active)
Nc1n[nH]c(N)c1N=Nc1ccc2c(c1)OCO2,,,,EC50 [9]: > 60 µM (not active); EC50 [10]: > 60 µM (not active); IC50 [3]: 30.1 µM (active)
Cn1c(SCc2ccccc2F)nnc1-c1cnccn1,0.166 µM (active),35.2 µM (active),4.22 µM (active),
Cc1c(Cl)cccc1N=C(S)N(Cc1cccs1)C1CCCC1,,,,EC50 [4]: > 120 µM (not active); EC50 [5]: > 120 µM (not active); EC50 [6]: > 120 µM (not active)
COc1ccc(NC(=O)c2ccc(-c3csc(C)n3)cc2)cc1,3.97 µM (active),1.24 µM (active),> 120 µM (not active),
COc1ccc(C2=NCN(c3ccc(C)cc3)C(S)=N2)cc1,6.32 µM (active),> 120 µM (not active),7.4 µM (active),
O=[N+]([O-])c1ccc2c(c1)C(O)n1nc(-c3ccccc3)nc1S2 (stereo not drawn),> 120 µM (not active),> 120 µM (not active),> 120 µM (not active),
N#C/C=C1\Sc2ccccc2C(=O)N1CC(=O)N1CCN(S(=O)(=O)c2ccccc2)CC1,13.2 µM (active),16 µM (active),46.7 µM (active),
COc1cc(/C=C/c2nnc3c4ccccc4ncn23)cc(OC)c1OC,8.84 µM (active),29.1 µM (active),> 120 µM (not active),IC50 (H9c2): > 79 µM (inactive)
CCOc1cc(C=NNC(=O)c2cccc(S(=O)(=O)N3CCCC3)c2)ccc1O,,,,IC50 [3]: 32.3 µM (active)
CC(C)NC(=O)CN1C(=O)CSc2ccc(S(=O)(=O)N3CCCC3)cc21,,,,IC50 [7]: > 47.1 µM (inactive); EC50 [8]: > 53 µM (inactive)
COc1nc(N/N=C/c2ccc(-c3ccccc3[N+](=O)[O-])o2)nc(N2CCOCC2)n1,12.4 µM (active),22.5 µM (active),24.7 µM (active),AC50 [11]: 16 µM (active); EC50 (Protein RecA): 14.4 µM (active)
CCn1c(C)nc2cc(C(=O)N/N=C/c3ccc(O)cc3)ccc21,,,,IC50 [3]: 66.7 µM (active)
